Experimental data from patent US11242337B2, “Compounds useful for treating gastrointestinal tract disorders” (Ardelyx, Inc., priority 2017, dated 2022).

Tests used:
gastrointestinal transit = test: Restoration of gastrointestinal motility in opioid induced constipation (loperamide); assay type: in vivo, mice; details: oral gavage 15 mg/kg, loperamide s.c., Evans Blue small intestinal transit 30 minutes
Procedure: Approximately eight-week old, female, CD1 […] are purchased from Envigo (Livermore, Calif.), are housed 4 per cage and acclimated for at least 48 hours before study initiation. Animals are fed standard laboratory rodent chow Harlan Teklad Global 2018 (Madison, Wis.). Animals have ad libitum access to food and water for the duration of the acclimation period and are maintained in a temperature and humidity controlled room on a standard light/dark cycle of 6 AM to 6 PM. Following an overnight fast, with free access to water, animals are dosed by oral gavage with varying doses of test compound or vehicle (3 mM HCl, 0.01% Tween80), at a dose volume of 5 mL/kg. […] For an individual animal, the length travels by the Evans Blue dye front is divided by the length of the whole small intestine, measured from the pylorus to the cecum, and multiplied by 100, to provide the distance of the small intestine travelled by the dye as a percentage.

[1] = tested on: absorption of sodium from the intestinal lumen; test: Inhibition of intestinal sodium absorption in rats; assay type: in vivo, Sprague Dawley rats; details: 13-hours post-dose; for response vs control in vivo at 0.03 mg/kg: oral gavage 0.03 mg/kg; for response vs control in vivo at 0.1 mg/kg: oral gavage 0.1 mg/kg; for FFS (1-5): rats, group median fecal form score, 1 normal pellet to 5 liquid fecal streams; for response vs control in vivo at 0.3 mg/kg: oral gavage 0.3 mg/kg
Procedure: Urinary sodium excretion and fecal form were measured to assess the ability of selected example compounds to inhibit the absorption of sodium from the intestinal lumen. Eight-week old, male, Sprague Dawley rats were purchased from Envigo (Livermore, Calif.), were housed 2 per cage and acclimated for at least 48 hours before study initiation. Animals were fed. Harlan Teklad Global TD.160470 rodent chow (Madison, Wis.), standard laboratory rodent chow Harlan Teklad Global 2018 with the addition of 0.4% inorganic phosphorous. Animals had ad libitum access to food and water for the duration of the study and were maintained in a temperature and humidity controlled room on a standard light/dark cycle of 6 AM to 6 PM. On the day of study initiation, rats (n=5/group) were dosed by oral gavage with test compound or vehicle (3 mM HCl, 0.01% Tween80) at a dose volume of […]. Immediately after dose administration animals were placed in individual metabolic cages. At 13-hours post-dose, urine samples were collected and fecal form was assessed. In addition, the weight of food consumed over the 13-hour period was measured and recorded. Fecal forms were scored according to a common scale associated with increasing fecal water to the wettest observation in the cage's collection funnel (1, normal pellet; 2, pellet adhering to sides of collection funnel due to moisture; 3, loss of normal pellet shape; 4, complete loss of shape with a blotting pattern; 5, liquid fecal streams evident). Fecal form score (FFS) was calculated for each group as the median of each individual rat's FFS within the group and reported in Table 7. Fecal samples were dried using a lyophilizer for at least 3 days, following which dry weight was recorded and fecal fluid content was calculated based on the difference between the wet and dry stool weights. Fecal fluid content was calculated as a change from the vehicle group mean. For urine samples, the volumes were determined gravimetrically. Urine samples were analyzed on an ion chromatography system (Thermo Fisher ICS-3000 or ICS-5000+) coupled with conductivity detectors. Chromatographic separation of cations was performed using an IonPac CS12A (Thermo Fisher) 2×250 mm analytical column with an isocratic elution using 25 mM methanesulfonic acid. Concentrations were interpolated from a standard curve (prepared in 10 mM HCl) for sodium based on retention time and peak area. Thirteen-s-hour urinary sodium excretion (mg/13-hours) was calculated by multiplying urinary sodium concentration by 13-hour urine volume. The urinary sodium excretion of compound treatment was normalized to dietary sodium intake and expressed as a percentage of the vehicle mean.

[2] = Rattus norvegicus, Sprague Dawley rats, read-out: Urinary Na (% of Vehicle, out/in)

SMILES	% Restoration of Transit (gastrointestinal transit)	response vs control in vivo at 0.003 mg/kg ([1]; Rattus norvegicus, Sprague Dawley rats, oral gavage 0.003 mg/kg, read-out: Urinary Na (% of Vehicle, out/in)) [%]	response vs control in vivo at 0.01 mg/kg ([1]; Rattus norvegicus, Sprague Dawley rats, oral gavage 0.01 mg/kg, read-out: Urinary Na (% of Vehicle, out/in)) [%]	response vs control in vivo at 0.03 mg/kg [1, 2] [%]	response vs control in vivo at 0.1 mg/kg [1, 2] [%]	FFS (1-5) ([1]; 0.003 mg/kg)	FFS (1-5) ([1]; 0.01 mg/kg)	FFS (1-5) ([1]; 0.03 mg/kg)	FFS (1-5) ([1]; 0.1 mg/kg)	response vs control in vivo at 0.3 mg/kg [1, 2] [%]	FFS (1-5) ([1]; 0.3 mg/kg)
N#Cc1cc(Cl)cc2c1C[C@H](N1CCNCC1)[C@H]2Oc1ccc(S(=O)(=O)NC2CCN(C(=O)CCCNC(=O)NCCCCNC(=O)NCCCC(=O)N3CCC(NS(=O)(=O)c4ccc(O[C@H]5c6cc(Cl)cc(C#N)c6C[C@@H]5N5CCNCC5)cc4)CC3)CC2)cc1 [Example 115]	B (20-40%)	> 70	> 70	> 70	< 40	1	2	2	2		
N#Cc1cc(Cl)cc2c1C[C@H](N1CCNCC1)[C@H]2Oc1ccc(S(=O)(=O)NC2CCN(CCOCCNC(=O)NCCCCNC(=O)NCCOCCN3CCC(NS(=O)(=O)c4ccc(O[C@H]5c6cc(Cl)cc(C#N)c6C[C@@H]5N5CCNCC5)cc4)CC3)CC2)cc1 [Example 123, 4-([(1S,2S)-6-Chloro-4-cyano-2-(piperazin-1-yl)-2,3-dihydro-1H-inden-1-yl]oxy)-N-[1-(20-[4-([4-([(1S,2S)-6-chloro-4-cyano-2-(piperazin-1-yl)-2,3-dihydro-1H-inden-1-yl]oxy)phenyl]sulfonamide]piperidin-1-yl)-7,14-dioxo-3,18-dioxa-6,8,13,15-tetraazaicosyl]piperidin-4-yl)benzenesulfonamide]	A (<20%)			> 70	40 to 70			3	3	< 40	3
C[C@@H]1CN([C@H]2Cc3c(C#N)cc(Cl)cc3[C@@H]2Oc2ccc(S(=O)(=O)N[C@H]3CCN(CCOCCNC(=O)NCCCCNC(=O)NCCOCCN4CC[C@H](NS(=O)(=O)c5ccc(O[C@H]6c7cc(Cl)cc(C#N)c7C[C@@H]6N6CCN[C@H](C)C6)cc5)C4)C3)cc2)CCN1 [Example 132, 4-([(1S,2S)-6-Chloro-4-cyano-2-[(R)-3-methylpiperazin-1-yl]-2,3-dihydro-1H-inden-1-yl]oxy)-N—[(S)-1-(20-[(S)-3-([4-([(1S,2S)-6-chloro-4-cyano-2-[(R)-3-methylpiperazin-1-yl]-2,3-dihydro-1H-inden-1-yl]oxy)phenyl]sulfonamido)pyrrolidin-1-yl]-7,14-diaxo-3,18-dioxa-5,8,13,15-tetraazaicosyl)pyrrolidin-3-yl]benzenesulfonamide; bis(trifluoroacetic acid)]	C (>40%)			> 70	40 to 70			3	3	< 40	3
